From paper PMC2074394 (British Journal of Cancer, 1996)
Entries after “also recorded” stand apart in the source; their conditions may differ. Read-outs that look alike come from different tables or passages of the source.

Assays:
P-gp = P-gp (Homo sapiens, UniProt P08183); test: Inhibition of binding of [3H]vinblastine to P-gp in MCF-7/Adr membranes
From the text: (§1) In the present study these five compounds are compared as modifiers of P-gp-mediated MDR. […] The overall objective of the work was to explore the mechanisms of cytostasis and resistance reversal caused by kinase inhibitors in a MDR cell line, with the ultimate aim to assess the potential use of such compounds in cancer therapy. […] [3H]Vinblastine (11 or 21 Ci mmol -') was obtained from Amersham (Amersham, UK). […] Cell culture medium and serum were purchased from Gibco BRL (Paisley, UK). Stock solutions of drugs were prepared in dimethyl sulphoxide (DMSO) and stored at -20?C. […] Cultures of both cell types contained L-glutamine (2 mM), penicillin (100 IU ml-') and streptomy- cin (100 ug ml-1). Cells were subcultured when they were confluent. […] After a 4 h attachment period compounds at various concentrations were added. […] Cells were trypsinised and counted using a model ZM Coulter counter. Incubations were conducted in duplicate. Growth inhibition was expressed as percentage of cell number in drug-free control incubates. […] IC50 values were derived from three separate experiments each performed in duplicate. The resistance ratios shown in Table I are the ratios of IC50 in MCF-7/Adr over IC50 in MCF-7, or IC50 in MCF-7/Adr in the absence of reserpine over IC50 in its presence. Flow cytometric analysis of R123 accumulation and efflux Cells were maintained in medium without phenol red but with FCS (10%) and gentamicin (50 µg ml-'). […] Cells were detached by treatment with trypsin-EDTA, washed with ice-cold PBS and resuspended in PBS (1 ml), to which propidium iodide (10 Mg) was added. […] Single- and multi-parameter data of forward angle scatter, side scatter, R123 fluorescence and propidium iodide fluorescence were collected for 104 cells. Fluorescence was measured on a four-decade log scale. The data were analysed using Lysis 2 software. Only R123 fluorescence of viable, propidium iodide-excluding cells was analysed. [/II] Vinblastine accumndation ini cells MCF-7 and MCF-7jAdr cells were grown to confluency in 12-well plates. […] The experiment was started by addition of [3H]vinblastine (1 -2 nM) to the incubate. […] Cells were incubated at 37'C for I h, after which the medium was aspirated and replaced with scintillant (1 ml). […] For each membrane preparation 109 cells were homogenised in 40 ml ice-cold Tris buffer [Tris-HC1 50 mM, phenylmethylsulphonyl fluoride (PMSF) 0.1 mM, pH 7.4] to which 0.1 mM EDTA had been added. The homogenate was centrifuged at 3500 g for 10 min; the supernatant was recentrifuged at 40 000 g for 20 min, the resultant pellet was resuspended in Tris buffer (10 ml). […] Filters were washed twice with 5 ml of ice-cold Tris-HCI containing magnesium chloride (both 20 mM). Assays were performed in duplicate. Filters were dried and retained radioactivity was quantitated by liquid scintillation counting.

MCF-7 cells = test: Inhibition of growth of MCF-7 wild-type cells (4 days, Coulter count); format: cell-based, human; conditions: for IC50: 4 days incubation, mean of three experiments, read-out: IC50 MCF-7 (concentration which caused inhibition of cell growth by 50%)
From the text: as §1, with “were” for “were washed twice with 5 ml of ice-cold Tris-HCI containing magnesium chloride (both 20 mM). Assays were performed in duplicate. Filters were”

MCF-7/Adr cells [1] = test: [3H]Vinblastine accumulation in MCF-7/Adr cells; format: cell-based, human; conditions: 300 nM, 1 h, 37 C; control cells 1280 d.p.m.
From the text: as §1, with “were” for “were washed twice with 5 ml of ice-cold Tris-HCI containing magnesium chloride (both 20 mM). Assays were performed in duplicate. Filters were”

PKC = conditions: cited from earlier work; for PKC inhibition, potency (Table III summary) / IC50: ref Courage et al., 1995; for IC50: read-out: IC50 for enzyme inhibition, PKC derived from the cytosol of MCF-7 cells
MCF-7/Adr cells [2] = test: Flow cytometric analysis of R123 accumulation and efflux; format: cell-based, human; conditions: for Effect on R123 accumulation or efflux: 640 nM; for Increase over control levels in R123 accumulation: 20 min together with R123; on Effect on R123 efflux (Table III summary): key: +: potent effect; (+): weak effect; -: no effect
From the text: as §1

MCF-7/Adr cells [3] = test: Inhibition of growth of multidrug-resistant MCF-7/Adr cells, without or with reserpine; format: cell-based, human; conditions: for IC50: 4 days incubation, without reserpine; for Ratio (-reserpine / +reserpine): IC50 in MCF-7/Adr in the absence of reserpine over IC50 in its presence; for Ratio (MCF-7/Adr / MCF-7), resistance ratio: IC50 in MCF-7/Adr over IC50 in MCF-7; on MDR reversal by reserpine (Table III summary): key: +: potent effect; (+): weak effect; -: no effect; on Resistance in MCF-7/Adr cells (Table III summary): key: +: potent effect; (+): weak effect; -: no effect
MCF-7/Adr cells [4] = test: Sensitisation of MCF-7/Adr cells against doxorubicin (preliminary study); format: cell-based, human; conditions: unpublished preliminary study
[5] = read-out: Ki, inhibition of binding of [3H]vinblastine to P-gp, MCF-7/Adr membranes, 90 min, 23 C, mean, s.e.m.
[6] = Homo sapiens, NCI/ADR-RES, 96 h
Wherever PKC inhibition, potency (Table III summary) is given: key: +: potent effect; (+): weak effect; -: no effect.
Wherever PKC inhibition, specificity (Table III summary) is given: key: +: potent effect; (+): weak effect; -: no effect.

Chain of P-gp (P08183 whole entry): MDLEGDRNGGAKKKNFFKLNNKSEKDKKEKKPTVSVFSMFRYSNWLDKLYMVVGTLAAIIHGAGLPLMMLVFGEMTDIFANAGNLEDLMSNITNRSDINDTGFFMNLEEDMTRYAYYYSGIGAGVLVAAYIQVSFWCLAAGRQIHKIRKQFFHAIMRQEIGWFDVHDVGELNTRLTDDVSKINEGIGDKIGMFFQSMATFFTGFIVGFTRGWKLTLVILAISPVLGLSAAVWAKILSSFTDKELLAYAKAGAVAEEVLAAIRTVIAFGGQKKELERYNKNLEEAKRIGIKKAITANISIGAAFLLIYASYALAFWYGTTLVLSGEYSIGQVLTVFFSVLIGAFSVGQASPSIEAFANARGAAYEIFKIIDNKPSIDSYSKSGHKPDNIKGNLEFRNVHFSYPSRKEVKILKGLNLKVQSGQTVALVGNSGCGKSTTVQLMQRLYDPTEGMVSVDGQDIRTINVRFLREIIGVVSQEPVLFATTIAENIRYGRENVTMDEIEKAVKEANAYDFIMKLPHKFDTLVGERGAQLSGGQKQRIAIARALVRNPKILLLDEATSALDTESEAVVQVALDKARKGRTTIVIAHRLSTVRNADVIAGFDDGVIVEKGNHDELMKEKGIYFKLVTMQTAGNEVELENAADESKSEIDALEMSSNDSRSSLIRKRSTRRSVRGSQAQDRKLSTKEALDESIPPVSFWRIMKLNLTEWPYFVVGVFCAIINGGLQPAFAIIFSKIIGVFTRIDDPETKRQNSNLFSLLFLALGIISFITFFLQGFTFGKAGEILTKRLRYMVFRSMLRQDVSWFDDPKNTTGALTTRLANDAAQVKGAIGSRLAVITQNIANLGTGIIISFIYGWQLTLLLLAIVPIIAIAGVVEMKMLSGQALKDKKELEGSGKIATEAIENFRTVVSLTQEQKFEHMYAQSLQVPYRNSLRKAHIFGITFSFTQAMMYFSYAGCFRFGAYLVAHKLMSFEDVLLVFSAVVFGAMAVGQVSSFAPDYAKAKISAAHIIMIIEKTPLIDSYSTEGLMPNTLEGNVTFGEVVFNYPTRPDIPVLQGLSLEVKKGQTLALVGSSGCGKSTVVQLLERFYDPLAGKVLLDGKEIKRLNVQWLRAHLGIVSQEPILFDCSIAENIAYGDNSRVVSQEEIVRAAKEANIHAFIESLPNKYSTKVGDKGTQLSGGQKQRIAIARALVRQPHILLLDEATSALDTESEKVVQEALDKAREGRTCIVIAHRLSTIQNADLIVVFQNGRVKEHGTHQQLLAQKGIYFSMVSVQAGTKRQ

| SMILES | Ki (P-gp; [5]) [nM] | IC50 (MCF-7 cells) [nM] | [3H]Vinblastine accumulation (MCF-7/Adr cells [1]) | PKC inhibition, specificity (Table III summary) (PKC) | PKC inhibition, potency (Table III summary) (PKC) | IC50 (MCF-7/Adr cells [3]) [nM] | Ratio (-reserpine / +reserpine) (MCF-7/Adr cells [3]) | Ratio (MCF-7/Adr / MCF-7), resistance ratio (MCF-7/Adr cells [3]) | Inhibition of [3H]vinblastine binding (Table III summary) (P-gp) | Effect on R123 efflux (Table III summary) (MCF-7/Adr cells [2]) | further results |
| --- | --- | --- | --- | --- | --- | --- | --- | --- | --- | --- | --- |
| CN(C)CCCn1cc(C2=C(c3c[nH]c4ccccc34)C(=O)NC2=O)c2ccccc21 [GF 109203X] | 780 | 7300 | 1790 d.p.m. | + | + | 8800 | 1.5 | 1.2 |  |  | Effect on R123 accumulation or efflux (MCF-7/Adr cells [2]): inactive; also recorded: did not alter |
| Cn1cc(C2=C(c3cn(CCCSC(=N)N)c4ccccc34)C(=O)NC2=O)c2ccccc21 [RO 31 8220] | 210 | 897 | no effect | + | + | 11300 | 6.4 | 12.6 | (+) |  | Effect on sensitivity of cells towards doxorubicin (MCF-7/Adr cells [4]; 2 μM): no effect; Effect of reserpine on sensitivity of wild-type MCF-7 cells (MCF-7 cells; result not shown): did not affect; IC50 (PKC): 48 nM; Effect on R123 accumulation or efflux (MCF-7/Adr cells [2]): inactive; also recorded: did not alter; MDR reversal by reserpine (Table III summary) (MCF-7/Adr cells [3]): +; Resistance in MCF-7/Adr cells (Table III summary) (MCF-7/Adr cells [3]): + |
| COC(=O)[C@H]1[C@H]2C[C@@H]3c4[nH]c5cc(OC)ccc5c4CCN3C[C@H]2C[C@@H](OC(=O)c2cc(OC)c(OC)c(OC)c2)[C@@H]1OC [reserpine] |  |  |  |  |  |  |  |  |  |  | Effect on proliferation (MCF-7/Adr cells [3]; reserpine 5 μM): did not interfere with proliferation; Increase of sensitivity towards doxorubicin (MCF-7/Adr cells [3]; reserpine 5 μM, preliminary experiments): 14.3 fold |
| COc1cccc2c1C(=O)c1c(O)c3c(c(O)c1C2=O)C[C@@](O)(C(=O)CO)C[C@@H]3O[C@H]1C[C@H](N)[C@H](O)[C@H](C)O1 [doxorubicin] |  |  |  |  |  |  | 16 |  |  |  | IC50 (MCF-7/Adr cells [3]; [6]): 1600 nM |
| CN[C@@H]1C[C@H]2O[C@@](C)([C@@H]1OC)n1c3ccccc3c3c4c(c5c6ccccc6n2c5c31)C(=O)NC4 [staurosporine] |  |  |  |  |  |  |  |  | (+) | + | Ki (P-gp): 145 nM; IC50 (PKC): 16 nM; Increase over control levels in R123 accumulation (MCF-7/Adr cells [2]; 80 nM): 40%; Increase over control levels in R123 retention (efflux) (MCF-7/Adr cells [2]; 20 min, 0.08 µM): 75%; IC50 (MCF-7/Adr cells [3]; [6]): 6.5 nM |
| CN[C@@H]1C[C@H]2O[C@@](C)([C@@H]1OC)n1c3ccccc3c3c4c(c5c6ccccc6n2c5c31)C(=O)N[C@H]4O [UCN-01, 7-hydroxystaurosporine] | 293 | 17.5 | 2110 d.p.m. | + | + | 123 | 3.5 | 7.0 | (+) | (+) | Concentration with significant effect on R123 accumulation (MCF-7/Adr cells [2]; tested 10-640 nM): 80 nM; Concentration with significant effect on dye efflux (MCF-7/Adr cells [2]; tested 10-640 nM): 320 nM; MDR reversal by reserpine (Table III summary) (MCF-7/Adr cells [3]): +; Resistance in MCF-7/Adr cells (Table III summary) (MCF-7/Adr cells [3]): + |
| CO[C@@H]1[C@H](N(C)C(=O)c2ccccc2)C[C@H]2O[C@]1(C)n1c3ccccc3c3c4c(c5c6ccccc6n2c5c31)C(=O)NC4 [CGP 41251, 4'-N-benzoyl staurosporine] |  |  | 3200 d.p.m. |  |  |  |  |  | + | + | Increase of sensitivity of cells towards doxorubicin (factor) (MCF-7/Adr cells [4]; 80 nM): 2; Ki (P-gp): 32 nM; Increase over control levels in R123 retention (efflux) (MCF-7/Adr cells [2]; 80 nM, 20 min after loading with and removal of the dye): 150%; Increase over control levels in R123 accumulation (MCF-7/Adr cells [2]; 80 nM): 47% |
